Here are results for 3 compounds from ChEMBL document CHEMBL4371025, “Discovery and evaluation of novel FAAH inhibitors in neuropathic pain model” (Bioorg Med Chem Lett, 2019).

The target of one data set is T1, Monoglyceride lipase (Homo sapiens, UniProt Q99685).
T1 sequence (Q99685 whole entry): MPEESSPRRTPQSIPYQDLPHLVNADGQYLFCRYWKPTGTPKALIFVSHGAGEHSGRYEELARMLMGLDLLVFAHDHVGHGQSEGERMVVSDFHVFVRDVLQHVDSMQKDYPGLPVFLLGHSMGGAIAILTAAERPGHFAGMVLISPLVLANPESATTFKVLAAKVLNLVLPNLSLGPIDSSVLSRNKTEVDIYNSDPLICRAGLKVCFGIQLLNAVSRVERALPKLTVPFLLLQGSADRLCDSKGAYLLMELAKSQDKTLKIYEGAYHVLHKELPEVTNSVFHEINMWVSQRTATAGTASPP
Nature of the data set: Inhibition of MAGL (unknown origin) up to 10 uM.

The test system of the next data set is CYP1A2. As to the kind of experiment: Selectivity ratio of IC50 for CYP1A2 in human liver microsomes to IC50 for human transmembrane domain deficient FFAH expressed in Escherichia coli. It is filed as toxicity. Conditions: read-out: Ratio IC50; call rule not given here.
The nature of data set [1]: Selectivity ratio of IC50 for MAGL (unknown origin) to IC50 for human transmembrane domain deficient FFAH expressed in Escherichia coli. It is filed as toxicity.
The test system of another data set is CYP2D6. Nature of the data set: Selectivity ratio of IC50 for CYP2D6 in human liver microsomes to IC50 for rat FFAH expressed in Escherichia coli. Conditions: read-out: Ratio IC50. Format: toxicity.
Data set [2] in a line: Drug uptake in Sprague-Dawley rat brain at 3 mg/kg, iv or 10 mg/kg, po administered as single dose via gavage by LC-MS/MS analysis. It is filed as ADME, organism-based. Conditions: in vivo.
Another data set concerns CYP2C9. As to the kind of experiment: Selectivity ratio of IC50 for CYP2C9 in human liver microsomes to IC50 for rat FFAH expressed in Escherichia coli. It is filed as toxicity. Particulars: read-out: Ratio IC50.
A short description of data set [3]: Drug level in plasma of Sprague-Dawley rat at 10 mg/kg, po administered as single dose via gavage measured at 12 hrs by LC-MS/MS analysis. Format: ADME, organism-based.
A short description of data set [4]: Drug level in liver of Sprague-Dawley rat at 10 mg/kg, po administered as single dose via gavage measured at 12 hrs by LC-MS/MS analysis. Particulars: read-out: Drug uptake. It is filed as ADME, organism-based.
A short description of data set [5]: Drug level in brain of Sprague-Dawley rat at 10 mg/kg, po administered as single dose via gavage measured at 12 hrs by LC-MS/MS analysis. It is filed as ADME, organism-based. Particulars: read-out: Drug uptake.

Consider `Cc1cc(C(=O)N[C@H]2CC/C(=C\c3cccc(Oc4ccc(C(F)(F)F)cn4)c3)CC2)cnc1N` (stereo not given), for which the “inhibition (INH)” value against Monoglyceride lipase is listed as “Not Active”. Further, the selectivity ratio in the data set on CYP1A2, in the data set on CYP2D6 and in the data set with CYP2C9 was > 5000 throughout. Besides, in data set [1], the “Ratio IC50” value is > 10000. This compound also had a Drug uptake in data set [2] of 50 to 80%.
In the case of `Nc1ncc(C(=O)N[C@H]2CC/C(=C\c3cccc(Oc4ccc(C(F)(F)F)cn4)c3)CC2)cn1` (stereo not given), the “inhibition (INH)” value against Monoglyceride lipase is listed as “Not Active”. The selectivity ratio with CYP1A2, in the data set on CYP2D6 and in the data set with CYP2C9 was > 5000 in each case. Besides, the “Ratio IC50” value in [1] is recorded as > 10000. The Drug uptake in data set [2] was 50 to 80%.
With `O=C(N[C@H]1CC/C(=C\c2cccc(Oc3ccc(C(F)(F)F)cn3)c2)CC1)c1cccnc1` (stereo not given), the concentration at 12 h in data set [3] came to 1.9 µM; in data set [4], 21 µM; in data set [5], 3.6 µM.
